Assay results reported in patent publication US20240317743A1, “Solid Forms of BCL-2 Inhibitors, Method of Preparation, and Use Thereof” (BeiGene, Ltd., priority 2021, published 2024).
Converted amounts (≈) assume the structure as drawn.

Key:
Format in all cases: physicochemical
[1] = DVS (Method B) water sorption / hygroscopicity; conditions: 25° C.; for water sorption: at 95% RH
Protocol: DVS of Form A and U was also measured via an SMS (Surface Measurement Systems) DVS Intrinsic (Method B). The relative humidity at 25° C. was calibrated against deliquescence point of LiCl, Mg(NO3)2, and KCL. Parameters for DVS test are listed as follows. [table]

[2] = Solid form solubility, concentration by HPLC at 24 hours; conditions: listed as Compound 1 Form A
Protocol: The solubility of Compound 1 in different physical forms was tested in water, 0.1 N HCl, pH 4.5 acetate buffer and pH 6.8 phosphate buffer. At 24 hours of time point, the concentration of Compound 1 was detected by HPLC.

[3] = Long term and accelerated physical and chemical stability test, impurities by HPLC
Protocol: Long term and accelerated stability studies were conducted in different physical forms of Compound 1, by storing the samples at 25±2° C./60±5% RH and 40±2° C./75±5% RH conditions for up to 6 months. And, the content of the total impurities of each sample was tested by HPLC.

[4] = Physical stability: storage under humidity/temperature, form checked by XRPD
Protocol: To evaluate the physicochemical stability, store 1˜3 mg of Forms B, S, M, R, F, H and N samples were stored under 25° C./60% RH or 40° C./75% RH conditions for one week (unsealed) or 80° C. condition for 24 hrs (sealed).

[5] = Storage at RT, form checked by XRPD overlay
Protocol: Form K was speculated as a methyl acetate solvate.
Thus, Form L was speculated as a metastable anhydrate/hydrate which could be de-solvated from the wet cake from the solvent system.
(peak) before decomposition (FIG. 16B). According to the integration of ^1H NMR result (FIG. 16C), the theoretical weight of chlorobenzene was calculated as 9.8%, which matched with the TGA weight loss. […] After heating the sample to 140° C., more diffraction peaks disappeared. Combined with the TGA, ^1H NMR data and heating experiment, Form P was speculated as a chlorobenzene solvate.

[6] = 25±2° C./60±5% RH and 40±2° C./75±5% RH, up to 6 months
[7] = 25° C./60% RH, one week, unsealed
[8] = 40° C./75% RH, one week, unsealed

CC(C)c1ccccc1[C@@H]1CCCN1C1CC2(CCN(c3ccc(C(=O)NS(=O)(=O)c4ccc(NCC5CCC(C)(O)CC5)c([N+](=O)[O-])c4)c(Oc4cnc5[nH]ccc5c4)c3)CC2)C1 (stereo partly drawn) [Form A, 2-((1H-pyrrolo[2,3-b]pyridin-5-yl)oxy)-N-((4-((((1r,4r)-4-hydroxy-4-methylcyclohexyl)methyl)amino)-3-nitrophenyl)sulfonyl)-4-(2-((S)-2-(2-isopropylphenyl)pyrrolidin-1-yl)-7-azaspiro[3.5]nonan-7-yl)benzamide]
water sorption ([1]; listed as Compound 1 form A): 0.4%
hygroscopicity ([1]; listed as Compound 1 form A): slightly hygroscopic
solubility ([2]; 0.1 N HCl): 29.36 µg/mL (≈ 33 µM)
solubility ([2]; pH 4.5 acetate buffer): 0.76 µg/mL (≈ 0.854 µM)
solubility ([2]; pH 6.8 phosphate buffer): 0.43 µg/mL (≈ 0.483 µM)
solubility ([2]; water): 0.37 µg/mL (≈ 0.416 µM)
crystal form change [3, 6]: no crystal form and optical purity changes
optical purity change [3, 6]: no crystal form and optical purity changes
change of chemical purity ([3]; 25±2° C./60±5% RH and 40±2° C./75±5% RH, up to 6 months, listed as Compound 1 Form A): no significant change
total content of impurities ([3]; after 6 months at 40±2° C./75±5% RH, listed as Compound 1 Form A): 0.52%
content of solvent EA ([3]; after storage in the stability study): ~8.8 ×10^4 ppm
content of solvent EA ([3]; before storage (initial)): about 9.5 ×10^4 ppm
total content of impurities ([3]; before storage (initial), listed as Compound 1 Form A): 0.40%

CC(C)c1ccccc1[C@@H]1CCCN1C1CC2(CCN(c3ccc(C(=O)NS(=O)(=O)c4ccc(NCC5CCC(C)(O)CC5)c([N+](=O)[O-])c4)c(Oc4cnc5[nH]ccc5c4)c3)CC2)C1 (stereo partly drawn) [Form F, 2-((1H-pyrrolo[2,3-b]pyridin-5-yl)oxy)-N-((4-((((1r,4r)-4-hydroxy-4-methylcyclohexyl)methyl)amino)-3-nitrophenyl)sulfonyl)-4-(2-((S)-2-(2-isopropylphenyl)pyrrolidin-1-yl)-7-azaspiro[3.5]nonan-7-yl)benzamide]
form change (XRPD overlay) [4, 7]: a mixture of Forms F and B was observed
form change (XRPD overlay) [4, 8]: a mixture of Forms F and B was observed
form change (XRPD overlay) ([4]; 80° C., sealed, 24 hrs): a mixture of Forms F and B was observed

CC(C)c1ccccc1[C@@H]1CCCN1C1CC2(CCN(c3ccc(C(=O)NS(=O)(=O)c4ccc(NCC5CCC(C)(O)CC5)c([N+](=O)[O-])c4)c(Oc4cnc5[nH]ccc5c4)c3)CC2)C1 (stereo partly drawn) [Form H, 2-((1H-pyrrolo[2,3-b]pyridin-5-yl)oxy)-N-((4-((((1r,4r)-4-hydroxy-4-methylcyclohexyl)methyl)amino)-3-nitrophenyl)sulfonyl)-4-(2-((S)-2-(2-isopropylphenyl)pyrrolidin-1-yl)-7-azaspiro[3.5]nonan-7-yl)benzamide]
form change (XRPD overlay) [4, 7]: no form change
form change (XRPD overlay) [4, 8]: no form change
form change (XRPD overlay) ([4]; 80° C., sealed, 24 hrs): an obvious decrease of crystallinity was observed

CC(C)c1ccccc1[C@@H]1CCCN1C1CC2(CCN(c3ccc(C(=O)NS(=O)(=O)c4ccc(NCC5CCC(C)(O)CC5)c([N+](=O)[O-])c4)c(Oc4cnc5[nH]ccc5c4)c3)CC2)C1 (stereo partly drawn) [Form K, 2-((1H-pyrrolo[2,3-b]pyridin-5-yl)oxy)-N-((4-((((1r,4r)-4-hydroxy-4-methylcyclohexyl)methyl)amino)-3-nitrophenyl)sulfonyl)-4-(2-((S)-2-(2-isopropylphenyl)pyrrolidin-1-yl)-7-azaspiro[3.5]nonan-7-yl)benzamide]
form change on storage (XRPD overlay) ([5]; RT, closed HPLC vial, ~5 weeks): converted to Form B of low crystallinity

CC(C)c1ccccc1[C@@H]1CCCN1C1CC2(CCN(c3ccc(C(=O)NS(=O)(=O)c4ccc(NCC5CCC(C)(O)CC5)c([N+](=O)[O-])c4)c(Oc4cnc5[nH]ccc5c4)c3)CC2)C1 (stereo partly drawn) [Form L, 2-((1H-pyrrolo[2,3-b]pyridin-5-yl)oxy)-N-((4-((((1r,4r)-4-hydroxy-4-methylcyclohexyl)methyl)amino)-3-nitrophenyl)sulfonyl)-4-(2-((S)-2-(2-isopropylphenyl)pyrrolidin-1-yl)-7-azaspiro[3.5]nonan-7-yl)benzamide]
form change on storage ([5]; storage at RT): converted to Form I

CC(C)c1ccccc1[C@@H]1CCCN1C1CC2(CCN(c3ccc(C(=O)NS(=O)(=O)c4ccc(NCC5CCC(C)(O)CC5)c([N+](=O)[O-])c4)c(Oc4cnc5[nH]ccc5c4)c3)CC2)C1 (stereo partly drawn) [Form M, 2-((1H-pyrrolo[2,3-b]pyridin-5-yl)oxy)-N-((4-((((1r,4r)-4-hydroxy-4-methylcyclohexyl)methyl)amino)-3-nitrophenyl)sulfonyl)-4-(2-((S)-2-(2-isopropylphenyl)pyrrolidin-1-yl)-7-azaspiro[3.5]nonan-7-yl)benzamide]
form change (XRPD overlay) [4, 7]: no form change
form change (XRPD overlay) [4, 8]: no form change
form change (XRPD overlay) ([4]; 80° C., sealed, 24 hrs): no form change

CC(C)c1ccccc1[C@@H]1CCCN1C1CC2(CCN(c3ccc(C(=O)NS(=O)(=O)c4ccc(NCC5CCC(C)(O)CC5)c([N+](=O)[O-])c4)c(Oc4cnc5[nH]ccc5c4)c3)CC2)C1 (stereo partly drawn) [Form N, 2-((1H-pyrrolo[2,3-b]pyridin-5-yl)oxy)-N-((4-((((1r,4r)-4-hydroxy-4-methylcyclohexyl)methyl)amino)-3-nitrophenyl)sulfonyl)-4-(2-((S)-2-(2-isopropylphenyl)pyrrolidin-1-yl)-7-azaspiro[3.5]nonan-7-yl)benzamide]
form change (XRPD overlay) [4, 7]: converted to Form T
form change (XRPD overlay) [4, 8]: converted to Form T
form change (XRPD overlay) ([4]; 80° C., sealed, 24 hrs): converted to Form T

CC(C)c1ccccc1[C@@H]1CCCN1C1CC2(CCN(c3ccc(C(=O)NS(=O)(=O)c4ccc(NCC5CCC(C)(O)CC5)c([N+](=O)[O-])c4)c(Oc4cnc5[nH]ccc5c4)c3)CC2)C1 (stereo partly drawn) [Form P, 2-((1H-pyrrolo[2,3-b]pyridin-5-yl)oxy)-N-((4-((((1r,4r)-4-hydroxy-4-methylcyclohexyl)methyl)amino)-3-nitrophenyl)sulfonyl)-4-(2-((S)-2-(2-isopropylphenyl)pyrrolidin-1-yl)-7-azaspiro[3.5]nonan-7-yl)benzamide]
form change on storage (XRPD comparison) ([5]; RT, ~4 weeks): some of the diffraction peaks disappeared

CC(C)c1ccccc1[C@@H]1CCCN1C1CC2(CCN(c3ccc(C(=O)NS(=O)(=O)c4ccc(NCC5CCC(C)(O)CC5)c([N+](=O)[O-])c4)c(Oc4cnc5[nH]ccc5c4)c3)CC2)C1 (stereo partly drawn) [Form R, 2-((1H-pyrrolo[2,3-b]pyridin-5-yl)oxy)-N-((4-((((1r,4r)-4-hydroxy-4-methylcyclohexyl)methyl)amino)-3-nitrophenyl)sulfonyl)-4-(2-((S)-2-(2-isopropylphenyl)pyrrolidin-1-yl)-7-azaspiro[3.5]nonan-7-yl)benzamide]
form change (XRPD overlay) [4, 7]: no form change was observed
form change (XRPD overlay) [4, 8]: no form change was observed
form change (XRPD overlay) ([4]; 80° C., sealed, 24 hrs): converted to a form which was similar to Form S

CC(C)c1ccccc1[C@@H]1CCCN1C1CC2(CCN(c3ccc(C(=O)NS(=O)(=O)c4ccc(NCC5CCC(C)(O)CC5)c([N+](=O)[O-])c4)c(Oc4cnc5[nH]ccc5c4)c3)CC2)C1 (stereo partly drawn) [Form S, 2-((1H-pyrrolo[2,3-b]pyridin-5-yl)oxy)-N-((4-((((1r,4r)-4-hydroxy-4-methylcyclohexyl)methyl)amino)-3-nitrophenyl)sulfonyl)-4-(2-((S)-2-(2-isopropylphenyl)pyrrolidin-1-yl)-7-azaspiro[3.5]nonan-7-yl)benzamide]
form change (XRPD overlay) [4, 7]: no form change
form change (XRPD overlay) [4, 8]: no form change
form change (XRPD overlay) ([4]; 80° C., sealed, 24 hrs): no form change

CC(C)c1ccccc1[C@@H]1CCCN1C1CC2(CCN(c3ccc(C(=O)NS(=O)(=O)c4ccc(NCC5CCC(C)(O)CC5)c([N+](=O)[O-])c4)c(Oc4cnc5[nH]ccc5c4)c3)CC2)C1 (stereo partly drawn) [Form U, 2-((1H-pyrrolo[2,3-b]pyridin-5-yl)oxy)-N-((4-((((1r,4r)-4-hydroxy-4-methylcyclohexyl)methyl)amino)-3-nitrophenyl)sulfonyl)-4-(2-((S)-2-(2-isopropylphenyl)pyrrolidin-1-yl)-7-azaspiro[3.5]nonan-7-yl)benzamide]
water sorption ([1]; listed as Compound 1 Form U): 1.4%
hygroscopicity ([1]; listed as Compound 1 Form U): slightly hygroscopicity
change of chemical purity ([3]; 25±2° C./60±5% RH and 40±2° C./75±5% RH, up to 6 months, listed as Compound 1 Form U): no significant change
total content of impurities ([3]; after 6 months at 40±2° C./75±5% RH, listed as Compound 1 Form U): 0.72%
total content of impurities ([3]; before storage (initial), listed as Compound 1 Form U): 0.40%
